Patent publication US20240101570A1 (AMGEN INC., priority 2020, published 2024)
Read-outs that look alike come from different tables or passages of the source.

Columns and labels:
[1] = system: HCT116 WT cells; test: HCT116 WT cell proliferation / viability (CellTiter-Glo, 6 days); format: cell-based; conditions: HCT116 WT cells, 6 days, CellTiter-Glo, read-out: HCT-116 WT IC50
Method in brief: (§1)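 IC50 values derive from sigmoidal dose-response fits, some with Hill slope fixed at −1 and top constrained to 100%, others from 4-parameter logistic models. They reflect CellTiter-Glo viability after 6 days of compound exposure at up to 10 or 50 μM.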

[2] = system: HCT116 MTAP null cells; test: HCT116 MTAP null cell proliferation / viability (CellTiter-Glo, 6 days); format: cell-based; conditions: for IC50: HCT116 MTAP null cells, 6 days, CellTiter-Glo, read-out: HCT-116 MTAP null IC50
Method in brief: as §1

## CC1(CN(Cc2ccc(C(F)(F)F)cn2)C(=O)c2cc3c4c(c(N)nc3cn2)COC4)CC1 [Example 398, 4-amino-N-((1-methylcyclopropyl)methyl)-N-((5-(trifluoromethyl)-2-pyridinyl)methyl)-1,3-dihydrofuro[3,4-c][1,7]naphthyridine-8-carboxamide]
[1]; Homo sapiens, HCT-116, 144 h
  IC50: 1.39 µM
[2]; HCT116-MTAP null, 144 h
  IC50: 0.049 µM

## C[C@@H](c1ncccn1)N(Cc1ccc(C#N)cn1)C(=O)c1ccc2nc(N)c3c(c2c1)COC3 [Example 666, 4-amino-N-((5-cyano-2-pyridinyl)methyl)-N-((1S)-1-(2-pyrimidinyl)ethyl)-1,3-dihydrofuro[3,4-c]quinoline-8-carboxamide]
[1]; Homo sapiens, HCT-116, 144 h
  IC50: > 10 µM
[2]; HCT116-MTAP null, 144 h
  IC50: 0.687 µM

## Cc1noc2c1c(N)nc1ccc(C(=O)N(Cc3ccc(C(F)(F)F)cn3)CC(C)C)cc12 [Example 617, 4-amino-3-methyl-N-(2-methylpropyl)-N-((5-(trifluoromethyl)-2-pyridinyl)methyl)[1,2]oxazolo[4,5-c]quinoline-8-carboxamide]
[1]; Homo sapiens, HCT-116, 144 h
  IC50: > 10 µM
[2]; HCT116-MTAP null, 144 h
  IC50: 0.245 µM

## CC(C)N(Cc1ccc(C(F)(F)F)cn1)C(=O)c1cc2c3c(c(N)nc2cn1)COC3 [Example 675, 4-amino-N-(2-propanyl)-N-((5-(trifluoromethyl)-2-pyridinyl)methyl)-1,3-dihydrofuro[3,4-c][1,7]naphthyridine-8-carboxamide]
[1]; Homo sapiens, HCT-116, 144 h
  IC50: 12.7 µM
[2]; HCT116-MTAP null, 144 h
  IC50: 0.066 µM

## Nc1nc2ccc(C(=O)N(Cc3ccc(C(F)(F)F)nn3)C3CCC3)cc2c2c1COC2 [Example 669, 4-amino-N-cyclobutyl-N-((6-(trifluoromethyl)-3-pyridazinyl)methyl)-1,3-dihydrofuro[3,4-c]quinoline-8-carboxamide]
[1]; Homo sapiens, HCT-116, 144 h
  IC50: 3.07 µM
[2]; HCT116-MTAP null, 144 h
  IC50: 0.073 µM

## CN(Cc1ccc(C(F)(F)F)cc1)C(=O)c1ccc2nc(N)c3c(c2c1)COC3 [Example 399, 4-amino-N-methyl-N-(4-(trifluoromethyl)benzyl)-1,3-dihydrofuro[3,4-c]quinoline-8-carboxamide]
[1]; Homo sapiens, HCT-116, 144 h
  IC50: 4.43 µM
[2]; HCT116-MTAP null, 144 h
  IC50: 0.393 µM

## CO[C@@H]1CCOC[C@H]1N(Cc1ccc(C#N)c(C)n1)C(=O)c1ccc2nc(N)c3c(c2c1)COC3 (single isomer, unassigned) [Example 583]
[1]
  IC50: 4.82 µM
[2]
  IC50: 0.173 µM

## CCN(Cc1ccc(C(F)(F)F)cn1)C(=O)c1ccc2nc(N)c3c(c2c1)COC3 [Example 362, 4-amino-N-ethyl-N-((5-(trifluoromethyl)-2-pyridinyl)methyl)-1,3-dihydrofuro[3,4-c]quinoline-8-carboxamide]
[1]; Homo sapiens, HCT-116, 144 h
  IC50: 2.21 µM
[2]; HCT116-MTAP null, 144 h
  IC50: 0.076 µM

## CCN(Cc1ccc(C(F)(F)F)cn1)C(=O)c1cc2c3c(c(N)nc2cc1Cl)COC3 [Example 420, 4-amino-7-chloro-N-ethyl-N-((5-(trifluoromethyl)-2-pyridinyl)methyl)-1,3-dihydrofuro[3,4-c]quinoline-8-carboxamide]
[1]; Homo sapiens, HCT-116, 144 h
  IC50: 8.36 µM
[2]; HCT116-MTAP null, 144 h
  IC50: 0.248 µM

## CN(Cc1ccc(Cl)cn1)C(=O)c1ccc2nc(N)c3c(c2c1)COC3 [Example 702, 4-amino-N-((5-chloro-2-pyridinyl)methyl)-N-methyl-1,3-dihydrofuro[3,4-c]quinoline-8-carboxamide]
[1]; Homo sapiens, HCT-116, 144 h
  IC50: 4.12 µM
[2]; HCT116-MTAP null, 144 h
  IC50: 0.47 µM

## C[C@H]1OCc2c1c(N)nc1ccc(C(=O)N(Cc3ccc(C(F)(F)F)cn3)CC3(C)CC3)cc21 [Example 339, (3R)-4-amino-3-methyl-N-((1-methylcyclopropyl)methyl)-N-((5-(trifluoromethyl)-2-pyridinyl)methyl)-1,3-dihydrofuro[3,4-c]quinoline-8-carboxamide]
[1]; Homo sapiens, HCT-116, 144 h
  IC50: 0.611 µM
[2]; HCT116-MTAP null, 144 h
  IC50: 0.025 µM

## C[C@H](CF)N(Cc1ccc(C#N)cn1)C(=O)c1ccc2nc(N)c3c(c2c1)COC3 (single isomer, unassigned) [Example 577]
[1]; Homo sapiens, HCT-116, 144 h
  IC50: > 10 µM
[2]; HCT116-MTAP null, 144 h
  IC50: 3.26 µM
[2]; HCT116 MTAP null, comparison of the two SFC-separated enantiomers
  potency of enantiomer relative to the other enantiomer, measured by IC50 in HCT116 MTAP null cell viability assay: more potent

## C[C@H](c1ncccn1)N(Cc1ccc(C#N)cn1)C(=O)c1ccc2nc(N)c3ccccc3c2c1 [Example 630, 6-amino-N-((5-cyano-2-pyridinyl)methyl)-N-((1R)-1-(2-pyrimidinyl)ethyl)-2-phenanthridinecarboxamide]
[1]; Homo sapiens, HCT-116, 144 h
  IC50: 0.408 µM
[2]; HCT116-MTAP null, 144 h
  IC50: 0.019 µM

## COC[C@@H](C)N(Cc1ccc(C(F)(F)F)cn1)C(=O)c1cnc2nc(N)c3c(c2c1)COC3 [Example 322, 4-amino-N-((2R)-1-methoxy-2-propanyl)-N-((5-(trifluoromethyl)-2-pyridinyl)methyl)-1,3-dihydrofuro[3,4-c][1,8]naphthyridine-8-carboxamide]
[1]; Homo sapiens, HCT-116, 144 h
  IC50: 1.03 µM
[2]; HCT116-MTAP null, 144 h
  IC50: 0.081 µM

## C[C@H](c1ncccn1)N(Cc1ccc(C#N)cn1)C(=O)c1ccc2nc(N)c3c(c2c1)CCC3 [Example 615, 4-amino-N-((5-cyano-2-pyridinyl)methyl)-N-((1R)-1-(2-pyrimidinyl)ethyl)-2,3-dihydro-1H-cyclopenta[c]quinoline-8-carboxamide]
[1]; Homo sapiens, HCT-116, 144 h
  IC50: 0.271 µM
[2]; HCT116-MTAP null, 144 h
  IC50: 0.019 µM

## Nc1nc2cc(Cl)c(C(=O)N(Cc3ccc(C(F)(F)F)nn3)CC3CC3)cc2c2c1COC2 [Example 741, 4-amino-7-chloro-N-(cyclopropylmethyl)-N-((6-(trifluoromethyl)-3-pyridazinyl)methyl)-1,3-dihydrofuro[3,4-c]quinoline-8-carboxamide]
[1]; Homo sapiens, HCT-116, 144 h
  IC50: 1.02 µM
[2]; HCT116-MTAP null, 144 h
  IC50: 0.042 µM

## C[C@H](c1ncccn1)N(Cc1ccc(C(F)(F)F)cn1)C(=O)c1cnc2nc(N)c3c(c2c1)CCC3 [Example 626, 6-amino-N-((1R)-1-(2-pyrimidinyl)ethyl)-N-((5-(trifluoromethyl)-2-pyridinyl)methyl)-8,9-dihydro-7H-cyclopenta[c][1,8]naphthyridine-2-carboxamide]
[1]; Homo sapiens, HCT-116, 144 h
  IC50: 0.444 µM
[2]; HCT116-MTAP null, 144 h
  IC50: 0.043 µM

## Nc1nc2cc(F)c(C(=O)N(Cc3ccc(C(F)(F)F)cn3)C34CC(C3)C4)cc2c2c1COC2 [Example 381, 4-amino-N-(bicyclo[1.1.1]pentan-1-yl)-7-fluoro-N-((5-(trifluoromethyl)-2-pyridinyl)methyl)-1,3-dihydrofuro[3,4-c]quinoline-8-carboxamide]
[1]; Homo sapiens, HCT-116, 144 h
  IC50: 1.56 µM
[2]; HCT116-MTAP null, 144 h
  IC50: 0.008 µM

## CCOc1ccc(CN(C(=O)c2ccc3nc(N)c4c(c3c2)COC4)C23CC(C2)C3)nn1 [Example 387, 4-amino-N-(bicyclo[1.1.1]pentan-1-yl)-N-((6-ethoxy-3-pyridazinyl)methyl)-1,3-dihydrofuro[3,4-c]quinoline-8-carboxamide]
[1]; Homo sapiens, HCT-116, 144 h
  IC50: 4.04 µM
[2]; HCT116-MTAP null, 144 h
  IC50: 0.175 µM

## Cc1cc2nc(N)c3cnn(C)c3c2cc1C(=O)N(C)Cc1ccc(F)cn1 [Example 516, 4-amino-N-((5-fluoro-2-pyridinyl)methyl)-N,1,7-trimethyl-1H-pyrazolo[4,3-c]quinoline-8-carboxamide]
[1]; Homo sapiens, HCT-116, 144 h
  IC50: 9.32 µM
[2]; HCT116-MTAP null, 144 h
  IC50: 0.167 µM

## COc1ccc(CN(C(=O)c2ccc3nc(N)c4c(c3c2)COC4)[C@H](C)c2ncccn2)nn1 [Example 446, 4-amino-N-((6-methoxy-3-pyridazinyl)methyl)-N-((1R)-1-(2-pyrimidinyl)ethyl)-1,3-dihydrofuro[3,4-c]quinoline-8-carboxamide]
[1]; Homo sapiens, HCT-116, 144 h
  IC50: 0.237 µM
[2]; HCT116-MTAP null, 144 h
  IC50: 0.012 µM

## CCOc1ccc(CN(CC(C)C)C(=O)c2ccc3nc(N)c4c(c3c2)COC4)nn1 [Example 642, 4-amino-N-((6-ethoxy-3-pyridazinyl)methyl)-N-(2-methylpropyl)-1,3-dihydrofuro[3,4-c]quinoline-8-carboxamide]
[1]; Homo sapiens, HCT-116, 144 h
  IC50: 1.3 µM
[2]; HCT116-MTAP null, 144 h
  IC50: 0.041 µM

## CCN(Cc1ccc(C(F)(F)F)cn1)C(=O)c1cc2c(cc1F)nc(N)c1c2cnn1C [Example 427, 4-amino-N-ethyl-7-fluoro-3-methyl-N-((5-(trifluoromethyl)-2-pyridinyl)methyl)-3H-pyrazolo[3,4-c]quinoline-8-carboxamide]
[1]; Homo sapiens, HCT-116, 144 h
  IC50: 1.68 µM
[2]; HCT116-MTAP null, 144 h
  IC50: 0.044 µM

## COC[C@H](C1CC1)N(Cc1ccc(Br)nn1)C(=O)c1cnc2nc(N)c3c(c2c1)COC3 (single isomer, unassigned) [Example 651]
[1]; Homo sapiens, HCT-116, 144 h
  IC50: 3.52 µM
[2]; HCT116-MTAP null, 144 h
  IC50: 0.234 µM

## CN(Cc1ccc(C2=CCOCC2)cn1)C(=O)c1ccc2nc(N)c3c(c2c1)COC3 [Example 429, 4-amino-N-((5-(3,6-dihydro-2H-pyran-4-yl)-2-pyridinyl)methyl)-N-methyl-1,3-dihydrofuro[3,4-c]quinoline-8-carboxamide]
[1]; Homo sapiens, HCT-116, 144 h
  IC50: 31.8 µM
[2]; HCT116-MTAP null, 144 h
  IC50: 1.26 µM

## Cn1ncc2c(N)nc3cc(F)c(C(=O)N(Cc4ccc(C(F)(F)F)nn4)C4CC4)cc3c21 [Example 804, 4-amino-N-cyclopropyl-7-fluoro-1-methyl-N-((6-(trifluoromethyl)-3-pyridazinyl)methyl)-1H-pyrazolo[4,3-c]quinoline-8-carboxamide]
[1]; Homo sapiens, HCT-116, 144 h
  IC50: 1.8 µM
[2]; HCT116-MTAP null, 144 h
  IC50: 0.026 µM

## CCOc1ccc(CN(C(=O)c2ccc3nc(N)c4c(c3c2)CO[C@@H]4C)[C@H](C)COC)nn1 [Example 374, (3R)-4-amino-N-((6-ethoxy-3-pyridazinyl)methyl)-N-((2R)-1-methoxy-2-propanyl)-3-methyl-1,3-dihydrofuro[3,4-c]quinoline-8-carboxamide]
[1]; Homo sapiens, HCT-116, 144 h
  IC50: 0.286 µM
[2]; HCT116-MTAP null, 144 h
  IC50: 0.014 µM

## N#Cc1ccc(CN(CC2CC2)C(=O)c2cc3c4c(c(N)nc3cn2)COC4)nc1 [Example 682, 4-amino-N-((5-cyano-2-pyridinyl)methyl)-N-(cyclopropylmethyl)-1,3-dihydrofuro[3,4-c][1,7]naphthyridine-8-carboxamide]
[1]; Homo sapiens, HCT-116, 144 h
  IC50: 3.4 µM
[2]; HCT116-MTAP null, 144 h
  IC50: 0.087 µM

## CCN(Cc1ccc(C(F)(F)F)cn1)C(=O)c1cc2c3c(c(N)nc2cn1)[C@@H](C)OC3 [Example 408, (3R)-4-amino-N-ethyl-3-methyl-N-((5-(trifluoromethyl)-2-pyridinyl)methyl)-1,3-dihydrofuro[3,4-c][1,7]naphthyridine-8-carboxamide]
[1]; Homo sapiens, HCT-116, 144 h
  IC50: 3.35 µM
[2]; HCT116-MTAP null, 144 h
  IC50: 0.086 µM
